Test results from publication PMC8657773, “Development of a PROTAC-Based Targeting Strategy Provides a Mechanistically Unique Mode of Anti-Cytomegalovirus Activity” (International Journal of Molecular Sciences, 2021).
Several values for one entry are separate records, joined by “and”; a condition that tells them apart may be missing. Equal entries are not always repeated. Where two headings read alike, the source gives them in different places.

Experiments:
[1] = test system: SARS-CoV-2 d6-YFP; design: method as in PMID 34578109; settings: human Caco-2 cells, previously demonstrated; ref [41]; cited from earlier work
[2] = test system: HCMV Merlin; assay: HCMV-specific qPCR replication assay in TEV-1 trophoblast cells; format: cell-based, Human cytomegalovirus
[3] = test system: HCMV Merlin; assay: HCMV-specific qPCR replication assay in MRC-5 cells; format: cell-based, Human cytomegalovirus
[4] = target: T1, CDK9 (Homo sapiens, UniProt P50750); assay: Western blot of CDK levels in HCMV-infected HFFs; format: cell-based; settings: HCMV AD169-infected HFFs (MOI 2)
T1 construct: endogenous in cells; host or cells: primary human foreskin fibroblasts (HFFs), mock- or HCMV AD169-infected
T1 sequence (P50750 whole entry): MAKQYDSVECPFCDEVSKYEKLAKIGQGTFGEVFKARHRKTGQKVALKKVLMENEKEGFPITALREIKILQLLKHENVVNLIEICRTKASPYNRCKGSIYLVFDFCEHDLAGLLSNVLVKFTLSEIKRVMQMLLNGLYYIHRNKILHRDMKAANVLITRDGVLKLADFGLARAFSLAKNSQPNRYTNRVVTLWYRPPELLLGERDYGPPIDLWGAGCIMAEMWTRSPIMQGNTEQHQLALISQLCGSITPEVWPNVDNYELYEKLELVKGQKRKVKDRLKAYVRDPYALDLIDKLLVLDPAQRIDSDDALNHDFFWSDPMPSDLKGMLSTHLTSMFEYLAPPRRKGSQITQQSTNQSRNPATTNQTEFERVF
Experimental: (§1) Western blot analyses of infected and mock-infected HFFs were performed as previously described. Antibodies specific for CDK9 (sc-484, Santa Cruz Biotechnology, Dallas, TX, USA), mAb-CDK1 (sc-54, Santa Cruz Biotechnology), pAb CDK2 (Sc-163, Santa Cruz Biotechnology), pAb-CDK7 (sc-723, Santa Cruz Biotechnology), and mAb β-actin (A5441, Sigma Aldrich, St. Louis, MO, USA) were used with an appropriate secondary antibody to detect the respective proteins.

[5] = target: T2, CDK1 (Homo sapiens, UniProt P06493); assay: Western blot of CDK levels in HCMV-infected HFFs; format: cell-based; settings: HCMV AD169-infected HFFs (MOI 2), THAL-SNS032 treatment, 1 and 3 d p.i.
T2 construct: endogenous in cells; host or cells: primary human foreskin fibroblasts (HFFs), mock- or HCMV AD169-infected
T2 sequence (P06493 whole entry): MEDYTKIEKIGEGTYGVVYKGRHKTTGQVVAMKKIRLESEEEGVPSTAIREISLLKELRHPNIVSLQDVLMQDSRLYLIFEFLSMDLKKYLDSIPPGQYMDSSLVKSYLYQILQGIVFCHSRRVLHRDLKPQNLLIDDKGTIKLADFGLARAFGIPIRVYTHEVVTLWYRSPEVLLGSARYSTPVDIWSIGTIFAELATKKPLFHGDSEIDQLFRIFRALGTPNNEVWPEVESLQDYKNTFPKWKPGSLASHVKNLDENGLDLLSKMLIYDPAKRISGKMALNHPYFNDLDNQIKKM
Experimental: as §1

[6] = target: T3, CDK2 (Homo sapiens, UniProt P24941); assay: Western blot of CDK levels in HCMV-infected HFFs; format: cell-based; settings: HCMV AD169-infected HFFs (MOI 2), THAL-SNS032 treatment, 1 and 3 d p.i.
T3 construct: endogenous in cells; host or cells: primary human foreskin fibroblasts (HFFs), mock- or HCMV AD169-infected
Experimental: as §1

[7] = target: T4, CDK7 (Homo sapiens, UniProt P50613); assay: Western blot of CDK levels in HCMV-infected HFFs; format: cell-based; settings: HCMV AD169-infected HFFs (MOI 2), THAL-SNS032 treatment, 1 and 3 d p.i.
T4 construct: endogenous in cells; host or cells: primary human foreskin fibroblasts (HFFs), mock- or HCMV AD169-infected
T4 sequence (P50613 whole entry): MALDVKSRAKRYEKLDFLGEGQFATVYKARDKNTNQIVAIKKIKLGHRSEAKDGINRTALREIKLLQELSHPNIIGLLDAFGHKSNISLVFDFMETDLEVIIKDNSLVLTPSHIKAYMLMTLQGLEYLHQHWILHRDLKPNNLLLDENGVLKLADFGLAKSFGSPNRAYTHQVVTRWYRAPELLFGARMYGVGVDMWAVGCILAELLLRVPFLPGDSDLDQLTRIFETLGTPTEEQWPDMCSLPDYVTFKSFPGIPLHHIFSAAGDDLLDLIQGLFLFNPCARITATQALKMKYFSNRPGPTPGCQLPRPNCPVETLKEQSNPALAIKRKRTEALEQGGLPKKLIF
Experimental: as §1

[8] = Neutral Red uptake assay, uninfected MRC-5 cells; format: cell-based; settings: human
Experimental: (§2) Drug induced cytotoxicity in HFF and other cell types was measured as a reduction of cell viability determined by Neutral Red uptake assay (NRA), as described previously. Briefly, compound treated cells were incubated with a final concentration of 40 μg/mL Neutral Red (Sigma Aldrich, St. Louis, MO, USA) for 1 to 4 h, depending on the cell type. The amount of incorporated Neutral Red was released from the cells by incubation with destaining solution (50% ethanol, 49% H2O, 1% acetic acid), and subsequently quantitated in a microplate reader by fluorescence measurement using 560/630 nm for excitation/emission, respectively. For determination of lactate dehydrogenase release into the cell culture supernatant, the CytoTox 96® Non-Radioactive Cytotoxicity Assay (Promega, Madison, WI, USA) was used according to the manufacturer’s protocol. Values were normalized to maximal release of LDH by measuring lysates of solvent-treated control cells. Cell viability was defined as the absence of cytotoxicity.

[9] = Cell viability of Vero cells; format: cell-based; settings: African green monkey
Experimental: as §2

[10] = test system: HAdV-2; assay: HAdV-2 plaque formation assay in HFFs; format: cell-based, human adenovirus type 2; settings: for EC50: HAdV-2, HFF, 10 d p.i.; for impact on HAdV-2 plaque formation: HFFs, at concentrations (0.03 µM) that produced anti-HCMV activity
[11] = test system: VZV Oka-GFP; format: cell-based, varicella zoster virus; settings: HFF, 1× TCID25^7d, 6 d p.i.
[12] = test system: SARS-CoV-2 d6-YFP; assay: microbe, parasite or virus in culture; format: cell-based
[13] = test system: ZIKV PRVABC59; assay: ZIKV qPCR replication assay in Vero cells; format: cell-based, Zika virus; settings: for EC50: ZIKV PRVABC59, Vero
[14] = test system: TEV-1 trophoblast cells; assay: Transwell migration assay, HCMV AD169-infected TEV-1 trophoblasts; format: cell-based, human; settings: HCMV AD169-infected TEV-1 (MOI 2)
[15] = in vitro; format: cell-based
Experimental: as §2

[16] = test system: MEFs; assay: in vitro; format: cell-based; settings: mouse, 5 d
Experimental: as §2

[17] = test system: HCMV AD169-GFP; assay: microbe, parasite or virus in culture; format: cell-based, Human cytomegalovirus
[18] = target: T1, CDK9; assay: Western blot of CDK degradation in HFFs; format: cell-based; settings: uninfected HFFs
Experimental: as §1

[19] = target: T2, CDK1; assay: Western blot of CDK degradation in HFFs; format: cell-based; settings: uninfected HFFs, up to 100 nM, up to 24 h
Experimental: as §1

[20] = target: T3, CDK2; assay: Western blot of CDK degradation in HFFs; format: cell-based; settings: uninfected HFFs
Experimental: as §1

[21] = target: T4, CDK7; assay: Western blot of CDK degradation in HFFs; format: cell-based; settings: uninfected HFFs
Experimental: as §1

[22] = test system: MCMV Smith-GFP; assay: microbe, parasite or virus in culture; format: cell-based, murine CMV; settings: for EC50: Human betaherpesvirus 5, in Mus musculus, 120 h, MCMV Smith-GFP, 5 d p.i.
[23] = test system: HFFs; assay: in vitro; format: cell-based; settings: human
Experimental: as §2

[24] = test system: HCMV AD169-GFP; design: method as in PMID 30452929, PMID 25624324; settings: anti-HCMV, preceding determination; ref [22],[26]; cited from earlier work
[25] = Severe acute respiratory syndrome coronavirus 2, Caco-2
[26] = Severe acute respiratory syndrome coronavirus 2, Caco-2, 30 h
[27] = Human betaherpesvirus 5, AD169, 168 h
[28] = Human betaherpesvirus 5, AD169, HFF-1, 168 h
[29] = washout after 24 h treatment, initial levels reconstituted after 24 h
[30] = MEF, 1× TCID25^5d, Table 1 summary

SMILES: O=C1Cc2c([nH]c3ccc([N+](=O)[O-])cc23)-c2ccccc2N1 [R25/alsterpaullone, alsterpaullone]
- impairment of SARS-CoV-2 replication [1]: effective

SMILES: CC(C)(C)c1cnc(CSc2cnc(NC(=O)C3CCN(CC(=O)NCCOCCOCCOCCNc4cccc5c4C(=O)N(C4CCC(=O)NC4=O)C5=O)CC3)s2)o1 (stereo not shown) [THAL-SNS032]
- SI [2]: 53.7 and 54
- EC50 ([2]; Human betaherpesvirus 5, 168 h, HCMV Merlin, TEV-1, 7 d p.i.): 75 nM
- EC50 ([3]; Human betaherpesvirus 5, MRC5, 96 h, HCMV Merlin, MRC-5, MOI 0.02, 4 d p.i., read-out: EC50): 370 nM
- EC50 ([3]; Human betaherpesvirus 5, MRC5, 96 h, HCMV Merlin, MRC-5, MOI 0.2, 4 d p.i., read-out: EC50): 1770 nM
- EC50 ([3]; Human betaherpesvirus 5, MRC5, 168 h, HCMV Merlin, MRC-5, MOI 0.002, 7 d p.i., read-out: EC50): 570 nM
- EC50 ([3]; Human betaherpesvirus 5, MRC5, 168 h, HCMV Merlin, MRC-5, MOI 0.02, 7 d p.i., read-out: EC50): 400 nM
- EC50 ([3]; Human betaherpesvirus 5, MRC5, 168 h, HCMV Merlin, MRC-5, MOI 0.2, 7 d p.i., read-out: EC50): 3070 nM
- EC50 ([3]; Human betaherpesvirus 5, MRC5, 240 h, HCMV Merlin, MRC-5, MOI 0.002, 10 d p.i., read-out: EC50): 940 nM
- EC50 ([3]; Human betaherpesvirus 5, MRC5, MRC-5, lower MOIs of 0.02 and 0.002, 4 to 10 days, read-out: EC50 values (range)): 340 to 940 nM
- CDK9 protein level ([4]; 1 nM, 1 and 3 d p.i.): partial reduction
- CDK9 protein level ([4]; 10 nM, 3 h p.i.): sufficient to deplete CDK9 levels
- CDK1 protein level [5]: markedly reduced at 1 d p.i. and completely lost at 3 d p.i.
- CDK2 protein level [6]: markedly reduced at 1 d p.i. and completely lost at 3 d p.i.
- CDK7 protein level [7]: markedly reduced at 1 d p.i. and completely lost at 3 d p.i.
- CC50 [8]: 4650 nM
- CC50 at 4 d [9]: 43900 nM
- EC50 [10]: inactive
- impact on HAdV-2 plaque formation [10]: none of the drugs produced a measurable impact
- EC50 [11]: inactive
- EC50 [12]: 150 ± 20 nM
- EC50 Ratio SNS032/ THAL-SNS032 [12]: 1.6 and 1.7
- SI [12]: 592
- EC50 [12, 25]: 146 ± 22 nM
- EC50 [12, 26]: 110 ± 20 nM
- effect on ZIKV replication ([13]; Vero cells, concentrations up to 10 µM): did not affect virus replication
- EC50 ([13]; MOI 0.02, 1 d p.i.): inactive
- EC50 ([13]; MOI 0.02, 2 d p.i.): inactive
- EC50 ([13]; MOI 0.02, 3 d p.i.): inactive
- EC50 ([13]; MOI 0.02, 4 d p.i.): inactive
- trophoblast migration ([14]; 0.5 µM, 21 h migration): almost completely abolished trophoblast migration
- CC50 ([15]; human): 4030 nM
- CC50 at 48 h ([15]; human): 64900 ± 16200 nM
- CC50 ([15]; human, CC50): 125 ± 14 nM
- CC50 ([15]; mouse, CC50): 1000 ± 220 nM
- CC50 at 5 d ([15]; mouse, CC50): ~1000 nM
- CC50 [16]: 960 ± 120 nM
- EC50 Ratio SNS032/ THAL-SNS032 [17]: 3.7
- SI [17]: 5.7
- EC50 [17, 27]: 25 ± 1 nM
- EC50 [17, 28]: 30 ± 10 nM
- EC50 ([17]; Human betaherpesvirus 5, AD169, read-out: EC50 values (range) for HCMV): 30 to 3070 nM
- CDK9 protein level ([18]; 10 nM, beginning with 6 h): markedly reduced
- CDK9 protein level ([18]; 100 nM, after 40 min): decreased protein levels
- time reduced CDK9 level was maintained after washout [18, 29]: 6 h
- CDK1 protein level [19]: apparently not affected
- CDK2 protein level ([20]; 100 nM, 6 to 24 h): decline in protein levels
- time reduced CDK2 level was maintained after washout [20, 29]: 6 h
- CDK7 protein level (larger variety) ([21]; 100 nM, 6 to 24 h): decline in protein levels
- time reduced CDK7 level was maintained after washout [21, 29]: 6 h
- EC50 Ratio SNS032/ THAL-SNS032 [22]: 1.4
- SI [22]: 4.7
- EC50 [22, 30]: 210 ± 90 nM
- EC50 ([22]; MEFs, Figure 6 experiment): 220 ± 80 nM

SMILES: Cc1c(Br)c(Br)c2c3c1nc(N1CCNCC1)n3CCC2 [SEL120]
- EC50 ([17]; Human betaherpesvirus 5, AD169): 120 ± 70 nM

SMILES: CC(C)(C)c1cnc(CSc2cnc(NC(=O)C3CCNCC3)s2)o1 [SNS032]
- EC50 [10]: inactive
- impact on HAdV-2 plaque formation [10]: none of the drugs produced a measurable impact
- EC50 [11]: inactive
- EC50 [12]: 180 ± 30 nM
- SI ([12]; Caco-2, conventional treatment): 340
- SI ([12]; Caco-2, only pretreatment): 397
- EC50 [12, 25]: 150 ± 30 nM
- EC50 [12, 26]: 175 ± 250 nM
- CC50 at 48 h ([15]; human): 59500 ± 7000 nM
- CC50 ([15]; human, CC50): 240 ± 22 nM
- CC50 ([15]; mouse, CC50): 1030 ± 50 nM
- CC50 at 5 d ([15]; mouse, CC50): ~1000 nM
- CC50 [23]: 220 ± 40 nM
- SI ([17]; HCMV AD169-GFP/HFF, Table 1 summary): 2.0
- SI ([17]; HCMV AD169-GFP/HFF, representative experiment (Figure 3)): 2.3
- EC50 [17, 27]: 105 ± 4 nM
- EC50 [17, 28]: 110 ± 20 nM
- impairment of SARS-CoV-2 replication [1]: effective
- EC50 [22, 30]: 290 ± 50 nM
- SI ([22]; MCMV/MEF, Figure 6 experiment): 3.5
- SI ([22]; MCMV/MEF, Table 1 summary): 3.5

SMILES: CC(C)c1cnn2c(NCc3ccccc3-n3cccn3)nc(OC3CCCNC3)nc12 (stereo not shown) [LDC4297]
- EC50 [24]: 30 nM
- impairment of SARS-CoV-2 replication [1]: inactive

SMILES: Nc1nc(O)c2ncn(COC(CO)CO)c2n1 [ganciclovir]
- resolving HCMV inhibition of trophoblast migration ([14]; 10 µM, vs infected untreated cells (p = 0.999)): no effect
